Measured values from the supplement of paper PMC10307832.

Columns and labels:
Assay in all cases: relative viability (nuclei count vs DMSO), 5 days (fraction); higher = more cells survive
[1] = compound: c1ccc2c(CCNc3ccc(Nc4ccncc4)cc3)c[nH]c2c1 [Serdemetan] + CCNC(=O)c1noc(-c2cc(C(C)C)c(O)cc2O)c1-c1ccc(CN2CCOCC2)cc1 [Luminespib] (partner 0.01 µM)
Procedure, shortened: (§1)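 Lung cancer cell lines in 1536-well plates were dosed by pin tool the day after seeding, either with one drug alone or with a fixed anchor-drug dose plus five library-drug doses (not always all listed) in √10 steps. After 5 days, cells were fixed and their nuclei stained in one step (final 0.05% Triton X-100, 1% formaldehyde, 1 ug/ml Hoechst), then counted on 4× images. Relative viability is the nuclei count in treated wells divided by that in vehicle wells. Values are medians of duplicate plates.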

[2] = compound: c1ccc2c(CCNc3ccc(Nc4ccncc4)cc3)c[nH]c2c1 [Serdemetan] + Nc1ncn([C@H]2C[C@H](O)[C@@H](CO)O2)c(=O)n1 [Decitabine] (partner 2 µM)
Procedure, shortened: as §1

[3] = compound: C1CC(C2=C(C1)C3=C(N2)C=CC(=C3)Cl)C(=O)N [Selisistat] + Cc1nc(Nc2ncc(C(=O)Nc3c(C)cccc3Cl)s2)cc(N2CCN(CCO)CC2)n1 [Dasatinib] (partner 0.075 µM)
Procedure, shortened: as §1

[4] = compound: c1ccc2c(CCNc3ccc(Nc4ccncc4)cc3)c[nH]c2c1 [Serdemetan] + Cc1nc(NC(=O)N2CCC[C@H]2C(N)=O)sc1-c1ccnc(C(C)(C)C(F)(F)F)c1 [Alpelisib] (partner 2 µM)
Procedure, shortened: as §1

Cell Line: UMC-11
- relative viability ([1]; first compound 0.04 µM): 0.938
- relative viability ([1]; first compound 0.1265 µM): 1.01
- relative viability ([1]; first compound 4 µM): 0.852
- relative viability ([2]; first compound 0.04 µM): 0.564
- relative viability ([2]; first compound 0.1265 µM): 0.387
- relative viability ([2]; first compound 0.4 µM): 0.685
- relative viability ([2]; first compound 1.265 µM): 0.649
- relative viability ([2]; first compound 4 µM): 0.532
- relative viability ([3]; first compound 0.4 µM): 0.434
- relative viability ([3]; first compound 1.265 µM): 0.477
- relative viability ([3]; first compound 4 µM): 0.521
- relative viability ([3]; first compound 12.65 µM): 0.476
- relative viability ([3]; first compound 40 µM): 0.559
- relative viability ([4]; first compound 0.04 µM): 0.914
- relative viability ([4]; first compound 0.1265 µM): 0.988
- relative viability ([4]; first compound 0.4 µM): 1.01
- relative viability ([4]; first compound 1.265 µM): 0.751
- relative viability ([4]; first compound 4 µM): 0.769
